Biological target: T1, Aromatase (Rattus norvegicus, UniProt P22443)
T1 construct: Invantile weibliche Ratten reagieren auf PMSG (Pregnant Mare's Serum Gonadotropin)-Behandlung mit einheitlich erhöhter Steroidsynthese; from tissue; host or cells: living infantile female rats (whole animal; serum estradiol read-out)
T1 sequence (P22443 1-508): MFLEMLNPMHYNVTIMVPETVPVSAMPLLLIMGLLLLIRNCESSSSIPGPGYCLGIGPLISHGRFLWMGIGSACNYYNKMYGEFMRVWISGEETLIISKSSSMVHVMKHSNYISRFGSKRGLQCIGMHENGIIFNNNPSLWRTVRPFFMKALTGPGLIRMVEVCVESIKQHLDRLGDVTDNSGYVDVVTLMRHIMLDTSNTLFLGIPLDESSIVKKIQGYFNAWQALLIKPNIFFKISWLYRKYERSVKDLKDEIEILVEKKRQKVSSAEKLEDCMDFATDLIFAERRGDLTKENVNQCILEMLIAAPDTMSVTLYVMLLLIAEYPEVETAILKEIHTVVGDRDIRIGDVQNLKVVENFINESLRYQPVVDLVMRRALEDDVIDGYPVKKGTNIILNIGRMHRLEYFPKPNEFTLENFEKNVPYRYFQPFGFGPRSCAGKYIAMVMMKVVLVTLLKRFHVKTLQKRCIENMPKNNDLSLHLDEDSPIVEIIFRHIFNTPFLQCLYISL
Assay: PMSG test in infantile female rats (serum estradiol by radioimmunoassay)
Format: in vivo, Ratte
Conditions: for Konzentration im Serum Östradiol: infantile Ratten, PMSG-stimulated, 2 x 10 mg/Tier p.o., serum 24 h after last PMSG, mean ± SD, 10 animals per group

Row | Structure (SMILES) | Konzentration im Serum Östradiol | Wirksamkeit (PMSG test, oral application, dose range tested 2 x 10 mg, result in words)
1 | CC[C@@H]1CC(=O)[C@@]2(C)CC[C@H]3[C@@H](CCC4=C(O)C(=O)CC[C@@]43C)[C@H]12 [B, 15β-Ethyl-4-hydroxy-4-androsten-3,17-dion] | 2,83 ± 0,29 nMol/l | –
2 | C[C@]12CCC(=O)C(O)=C1CC[C@@H]1[C@@H]2CC[C@]2(C)C(=O)CC[C@@H]12 [A, 4-Hydroxy-4-androsten-3,17-dion] | 3,45 ± 0,18 nMol/l | keine Wirksamkeit
3 | CC[C@@H]1CC(=O)[C@@]2(C)CC[C@H]3[C@@H](CCC4=C(OC(C)=O)C(=O)CC[C@@]43C)[C@H]12 [C, 4-Acetoxy-15β-ethyl-4-androsten-3,17-dion] | 2,34 ± 0,46 nMol/l | –

Source: patent EP0286578A1, “4,15-Disubstituted 4-androsten-3,17-diones, and process for their preparation” (SCHERING AKTIENGESELLSCHAFT, priority 1987, dated 1988)
